# Laboratory results reported in patent US5424428A, “( -)-[[4-(1,4,5,6-tetrahydro-4-methyl-6-oxo-3-pyridazinyl)phenyl]-hydrazono]p r” (Orion-yhtyma Oy, priority 1991, dated 1995).
# What was measured:
# [1] = test system: right ventricular papillary muscle of guinea-pig; test: Cardiotonic action in isolated, electrically paced, right ventricular papillary muscle; assay type: cell-based; settings: for EC50: cardiotonic effect, guinea-pig papillary muscle, normal Tyrode's bath solution
# Description: Cardiotonic action of the (-) and (+) enantiomers of [[4-(1,4,5,6-tetrahydro-4-methyl-6-oxo-3-pyridazinyl)phenyl]hydrazono]propanedinitrile (I) was studied in isolated, electrically paced, right ventricular papillary muscle of guinea-pig. Experiments were carried out in normal Tyrode's bath solution as described by Otani et al., Japan.
# [2] = Water solubility in 67 mM phosphate buffer (pH 2); assay type: physicochemical
# Description: The water solubility of (-) enantiomer and racemic mixture of
# [[4-(1,4,5,6-tetrahydro-4-methyl-6-oxo-3-pyridazinyl)phenyl]-
# hydrazono]propanedinitrite (l) in 67 mM phosphate buffer (pH 2).
# [3] = Bioavailability: concentration of total drug in dog plasma after single dose oral administration; assay type: in vivo
# Description: FIG. 1 is a graph depicting the concentration of total [[4-(1,4,5,6-tetrahydro-4-methyl-6-oxo-3-pyridazinyl)phenyl]hydrazono]propanedinitrile in dog plasma over time after single dose oral administration of the racemate and the (-) enantiomer.
# Concentration of total [[4-(1,4,5,6-tetrahydro-4-methyl-6-oxo-3-pyridazinyl)phenyl]hydrazono]propanedinitrile in dog plasma after single dose oral administration of the racemate (1 mg/kg) and (-)-enantiomer (0.5 mg/kg) is shown in FIG. 1. Curve A is for the (-)-enantiomer and curve B is for the racemic [[4-(1,4,5,6-tetrahydro-4-methyl-6-oxo-3-pyridazinyl)phenyl]hydrazono]propanedinitrile.
# [4] = LD50 given intravenously to rats; settings: rat, in vivo, intravenous
structure (smiles),measurement,setting,value
"CC1CC(=O)NN=C1c1ccc(NN=C(C#N)C#N)cc1 (single isomer, unassigned; (+)) [(+), (+)-[[4-(1,4,5,6-Tetrahydro-4-Methyl-6-Oxo-3-Pyridazinyl)phenyl]Hydrazono]Propanedinitrile]",EC50,[1],2.8 µM
"CC1CC(=O)NN=C1c1ccc(NN=C(C#N)C#N)cc1 (single isomer, unassigned; (-)) [(-) enantiomer, (-)-[[4-(1,4,5,6-Tetrahydro-4-Methyl-6-Oxo-3-Pyridazinyl)phenyl]Hydrazono]Propanedinitrile]",solubility,"[2]; aqueous buffer, water solubility, 67 mM phosphate buffer (pH 2)",0.029 mg/mL
same,water solubility of the (-) enantiomer compared to the racemate,[2]; ratio (-) enantiomer / racemate,over 30 fold
same,EC50,[1],0.06 µM
same,potency of (-) enantiomer relative to (+) enantiomer,"[1]; cardiotonic, ratio (-) vs (+) enantiomer",47 times
same,cardiotonic potency,[1]; result in words,cardiotonic potency is predominantly due to the optically active (-) enantiomer
same,"dose needed to produce the same plasma concentration level of the total drug substance, compared to racemate","[3]; dog, single dose oral, racemate 1 mg/kg, (-)-enantiomer 0.5 mg/kg, FIG. 1",less than half dose is needed to produce the same plasma concentration level of the total drug substance
same,bioavailability compared to racemate,[3]; result in words,superior compared to racemate
same,LD50,[4],57 mg/kg
